Laboratory results as given in patent US5585382A, “Polycyclic and heterocyclic chromophores for bis-imide tumoricidals” (The DuPont Merck Pharmaceutical Company, priority 1995, dated 1996).
Converted amounts (≈) assume the structure as drawn. Like-named read-outs stand apart in the source and are kept apart here.

Key:
[1] = test system: MX-1 human mammary carcinoma; assay: In vivo human tumor xenograft MX-1 in nude mice; details: for Tumor Growth Inhibition activity against MX-1 (in words): NCI criteria
Source text: (§1) The DLD-2 human colon tumor and MX-1 human mammary carcinoma, were originally obtained from a surgically-removed primary colon carcinoma or breast tumor respectively. The human tumor lines were maintained by serial passage in athymic nude mice. The MX-1 human mammary carcinoma is an established tumor used by the NCI. The DLD-2 human colon tumor has been well characterized. (Dexter, D. L.; Spremulli, E. N.; Matook, G. M.; Diamond, I.; Calabresi, P. Cancer Research 1982, 42, 5010; Dexter, D. L.; Barbosa, J. A.; Calabresi, P. Cancer Research 1979, 39, 1020.)
(§2) The mice used in these experiments were outbred Swiss mice or CD-1 mice bearing the nude (nu/nu) gene. On Day 0, male and female mice weighing 22-30 g are inoculated with 0.2 mL of a 25% tumor mince. This mince is prepared by mincing fresh tumor tissue, grown subcutaneously in passage mice, in sterile physiological saline. Palpable tumors weighing approximately 50 mg appear in the mice within 7-10 days after inoculation. The mice are pair matched by tumor weight and sex into groups of ten each and the test compounds and vehicle control are administered intravenously (i.v.) once daily for nine consecutive days. A >20% decrease in body weight on Day 5 following compound administration is considered an indication of toxicity. Tumor measurements and body weights are recorded once a week. Fifteen to eighteen days after the initial injection the mice are weighed, sacrificed, and the tumors excised and weighed.
(§3) The efficacy of the test compounds is determined by the extent of tumor growth inhibition in treated versus vehicle-treated control mice. Initial tumor weights (mg) are calculated from the tumor dimensions (mm) obtained from caliper measurements, using the formula for a prolate ellipsoid (mg of tumor weight=(length×width^2)/2). Net tumor weights are calculated for each of the treated groups and the vehicle-treated control group by subtracting the initial tumor weight from the final tumor weight (Day 15-18). Results are expressed as a percentage decrease relative to the mean tumor weight for the control vehicle-treated group.
(§4) Tumor Growth Inhibition= [formula]
(§5) The evaluation criteria of the National Cancer Institute for activity in in vivo cancer models were used. Tumor growth inhibition of 58-89% against the various xenografts is considered moderate activity, and inhibition of ≥90% is considered good to excellent activity. Actual tumor regressions (IR=incomplete regression; FR=full regression) indicate excellent to outstanding activity.

[2] = test system: Murine leukemia L1210 cells; assay: In vitro growth inhibition of L1210 cells (MTT, 72 hr); assay type: cell-based; details: Mus musculus, read-out: L1210 IC50
Protocol: (§6) The reagents for tissue culture were purchased from GIBCO (Grand Island, N.Y.). 5-Dimethylthiazol-2-yl)-2,5-diphenyl tetrazolium bromide (MTT) was purchased from Sigma Chemical Company (St. Louis, Mo.). All agents were prepared as 2 mg/ml stock solutions in DMSO. MTT was prepared as a 1 mg/ml stock solution in Dulbecco's phosphate buffered saline (PBS). All stocks were stored frozen in the dark at -20° C.
(§7) Clone A human colon cancer cells were isolated from the heterogeneous DLD-1 colon tumor line and maintained as previously described (Dexter, D. L.; Barbosa, J. A.; Calabresi, P. Cancer Research 1979, 39, 1020; Dexter, D. L.; Spremulli, E. M.; Fligiel, A.; Barbosa, J. A.; Vogel, R.; Van Vorhees, A.; Calabresi, P. Am. J. Med. 1981, 71, 949.). Murine leukemia L1210 cells were maintained in RPMI-L medium as described (Chen, S.-F.; Ruben, R. L.; Dexter, D. L. Cancer Research 1986, 46, 5014.). All cell lines were incubated at 37° C. in a humidified atmosphere of 5% CO2 -95% air.
(§8) Exponentially growing L1210 cells (1×10^3), or Clone A cells (8×10^2) in 0.1 ml medium were seeded in a 96-well microtiter plate on day 0. On day one, 0.1 ml aliquots of medium containing graded concentrations of test compounds were added to the cell plates. After incubation at 37° C. in a humidified incubator for 72 hr, the plates containing L1210 cells were centrifuged briefly and 100 μl of the growth medium was removed. Cell cultures were incubated with 50 μl of MTT for 4 h at 37° C. (12). The resulting purple formazan precipitate was solubilized with 200 μl of 0.04 N HCl in isopropyl alcohol. Absorbance was read in a Titertek Multiskan MCC scanning well spectrophotometer (Flow Laboratories) at a test wavelength of 570 nm and a reference wavelength of 630 nm. The absorbances were stored on a floppy disk on an IBM-XT and uploaded onto a VAX computer. IC50 values were determined by a computer program that fit the data to the following equation:
(§9) Y=((Am -Ao)/(1+(X/IC50)^n))+Ao
(§10) where Am =absorbance of the control cells; Ao =absorbance of the cells in the presence of highest compound concentration; Y=observed absorbance; X=compound concentration; IC50 =dose of compound that inhibits the number of population doublings of cells to one half that of the number of population doublings of the control cells; and n equals the slope of the straight portion of the curve.
(§11) The values reported in the table are from at least one experiment performed in eight replicates. If more than one experiment was performed, the number reported is the average of all the trials

[3] = test system: Clone A human colon cancer cells; assay: In vitro growth inhibition of Clone A cells (MTT, 72 hr); assay type: cell-based; details: read-out: Clone A IC50
Protocol: as §6, §7, §8, §9, §10, §11

DLD-2 human colon tumor = assay: In vivo human tumor xenograft DLD-2 in nude mice; details: i.v. once daily for nine days, nude mice
Source text: as §1, §2, §3, §4, §5

[4] = Mus musculus, iv, 216 h, read-out: MX-1 percent tumor growth inhibition
[5] = Mus musculus, iv, 216 h, read-out: MX-1 tumor regressions, IR=incomplete regression
[6] = i.v. once daily for nine days, nude mice
[7] = Mus musculus, iv, 216 h, i.v. once daily for nine days, nude mice, read-out: MX-1 percent tumor growth inhibition

Row | SMILES | solubility (Solubility in water) | Tumor Growth Inhibition activity against MX-1 (in words) [1, 6] | IC50 ([2]; L1210, 72 h) | IC50 ([3]; 72 h) | IC50 ([2]; L1210 cells, 72 hr, MTT) | IC50 ([3]; Clone A cells, 72 hr, MTT) | also measured
1 | CS(=O)(=O)O.CS(=O)(=O)O.C[C@@H](CN1C(=O)c2cc([N+](=O)[O-])cc3c2c(cc2cccnc23)C1=O)NCCN[C@@H](C)CN1C(=O)c2cc([N+](=O)[O-])cc3c2c(cc2cccnc23)C1=O [Example 20, (S,S)-1,2-bis-[2-(3-Nitro-5-azaphenanthrene-1, 10-dicarboximido)-1-methylethylamino]ethane Dihydromethanesulfonate] | 3330 µg/mL | moderate to excellent | 0.012 µg/mL |  |  |  | inhibition in vivo at 6.2 mg/kg [1, 4]: 95%; responders at 6.2 mg/kg [1, 5]: 11.1%
2 | CS(=O)(=O)O.CS(=O)(=O)O.Cc1cnc2c(c1)cc1c3c(cc([N+](=O)[O-])cc32)C(=O)N([C@H](C)CNCCNC[C@@H](C)N2C(=O)c3cccc4cc([N+](=O)[O-])cc(c34)C2=O)C1=O [Example 117, (R,R)-1-[2-(3-Nitro-7-methyl-5-azaphenanthrene-1, 10-dicarboximido)propylamino]-2-[2-(3-nitronaphthalene-1,8-dicarboximido)propylamino]ethane Dihydromethanesulfonate] | 8700 µg/mL | moderate to excellent | 0.036 µg/mL | 0.002 µg/mL |  |  | responders at 6 mg/kg [1, 5]: 100%
3 | Cc1cnc2c(c1)cc1c3c(cc([N+](=O)[O-])cc32)C(=O)N(C[C@H](C)NCCN[C@@H](C)CN2C(=O)c3cc([N+](=O)[O-])cc4c3c(cc3cc(C)cnc34)C2=O)C1=O [Example 26] |  |  | 0.018 µg/mL (≈ 0.0238 µM) | 0.012 µg/mL (≈ 0.0159 µM) |  |  | inhibition in vivo at 6.2 mg/kg [1, 4]: 22%
4 | CS(=O)(=O)O.CS(=O)(=O)O.O=C1c2cc([N+](=O)[O-])cc3c2c(cc2ncccc23)C(=O)N1CCNCCNCCN1C(=O)c2cc([N+](=O)[O-])cc3c2c(cc2ncccc23)C1=O [Example 19, 1,2-bis-[2-(3-Nitro-8-azaphenanthrene-1,10-dicarboximido)ethylamino]ethane Dihydromethanesulfonate] | 950 µg/mL | moderate to excellent | 0.013 µg/mL | 0.009 µg/mL |  |  | inhibition in vivo at 6 mg/kg [1, 4]: 84%
5 | Cc1cnc2c(c1)cc1c3c(cc([N+](=O)[O-])cc32)C(=O)N(CCNCCNCCN2C(=O)c3cc([N+](=O)[O-])cc4c3c(cc3cc(C)cnc34)C2=O)C1=O [Example 23] | 120 µg/mL (≈ 165 µM) |  |  |  | 0.042 µg/mL (≈ 0.0578 µM) | 0.043 µg/mL (≈ 0.0592 µM) | inhibition in vivo at 25 mg/kg [1, 7]: 0%
6 | CS(=O)(=O)O.O=C1c2cccc3c2c(cc2ncccc23)C(=O)N1CCCCNCCCN1C(=O)c2cccc3c2c(cc2ncccc23)C1=O [Example 17, 4-[3-(8-Azaphenanthrene-1,10-dicarboximido)propylamino]-1-(8-azaphenanthrene-1,10-dicarboximido) butane Hydromethanesulfonate] |  |  |  |  | 0.001 µg/mL | 0.001 µg/mL | inhibition in vivo at 6.2 mg/kg (DLD-2 human colon tumor; Mus musculus, DLD2, iv, 216 h, 6.2 mg/kg, read-out: DLD-2 percent tumor growth inhibition): 59%; Tumor Growth Inhibition activity against DLD-2 (in words) (DLD-2 human colon tumor; NCI criteria): moderate to excellent
7 | CS(=O)(=O)O.O=C1c2ccccc2C(=O)c2c1cc1c3c(cccc23)C(=O)N(CCCCNCCCN2C(=O)c3cccc4c5c(cc(c34)C2=O)C(=O)c2ccccc2C5=O)C1=O [Example 100, 4-[3-(7,12-Dihydro-7,12-dioxobenz[a]anthracene-4,5-dicarboximido)propylamino]-1-(7,12-dihydro-7,12-dioxobenz[a]anthracene-4,5-dicarboximido)butane Hydromethanesulfonate] | 160 µg/mL |  |  |  | 0.014 µg/mL | 0.07 µg/mL | inhibition in vivo at 20 mg/kg ([1]; Mus musculus, iv, 216 h, 20 mg/kg, i.v. once daily for nine days, nude mice, read-out: MX-1 percent tumor growth inhibition): 24%
8 | Cc1cnc2c(c1)cc1c3c(cc([N+](=O)[O-])cc32)C(=O)N(CCCNCCN2C(=O)c3cc([N+](=O)[O-])cc4c3c(cc3cc(C)cnc34)C2=O)C1=O [Example 22] | 30 µg/mL (≈ 43 µM) |  |  |  | 0.02 µg/mL (≈ 0.0287 µM) | 0.003 µg/mL (≈ 0.0043 µM) | inhibition in vivo at 25 mg/kg [1, 7]: 0%
9 | CC[C@H](CNCCNC[C@@H](CC)N1C(=O)c2cc([N+](=O)[O-])cc3c2c(cc2cc(C)cnc23)C1=O)N1C(=O)c2cc([N+](=O)[O-])cc3c2c(cc2cc(C)cnc23)C1=O [Example 24] | 150 µg/mL (≈ 192 µM) |  |  |  | 0.13 µg/mL (≈ 0.166 µM) | 0.022 µg/mL (≈ 0.0281 µM) | 
10 | CS(=O)(=O)O.CS(=O)(=O)O.O=C1c2cc([N+](=O)[O-])cc3c2c(cc2cccnc23)C(=O)N1CCNCCNCCN1C(=O)c2cc([N+](=O)[O-])cc3c2c(cc2cccnc23)C1=O [Example 6, 1,2-bis-[2-(3-Nitro-5-azaphenanthrene-1,10-dicarboximido)ethylamino]ethane Dihydromethanesulfonate] | 330 µg/mL | moderate to excellent | 0.041 µg/mL | 0.005 µg/mL |  |  | inhibition in vivo at 12.5 mg/kg [1, 4]: 81%
11 | CCc1ccc2cc3c4c(cccc4c2c1)C(=O)N(CCCCNCCCN1C(=O)c2cccc4c2c(cc2ccc(CC)cc24)C1=O)C3=O.CS(=O)(=O)O [Example 47, 4-[3-(6-Ethylphenanthrene-1, 10-dicarboximido)propylamino]-1-(6-ethylphenanthrene-1, 10-dicarboximido)butane Hydromethanesulfonate] | 150 µg/mL |  | 0.378 µg/mL | 0.763 µg/mL |  |  | 
12 | C[C@H](CNC[C@@H](C)N1C(=O)c2cc([N+](=O)[O-])cc3c2c(cc2cccnc23)C1=O)NC[C@@H](C)N1C(=O)c2cc([N+](=O)[O-])cc3c2c(cc2cccnc23)C1=O [Example 21] | 7700 µg/mL (≈ 10400 µM) |  |  |  | 0.042 µg/mL (≈ 0.0567 µM) | 0.005 µg/mL (≈ 0.00675 µM) | 
13 | CS(=O)(=O)O.Cc1ccc2c(C)c3c4c(cccc4c2c1)C(=O)N(CCCCNCCCN1C(=O)c2cccc4c2c(c(C)c2ccc(C)cc24)C1=O)C3=O [Example 46, 4-[3-(6,9-Dimethylphenanthrene-1,10-dicarboximido)propylamino]-1-(6,9-dimethylphenanthrene-1, 10-dicarboximido)butane Hydromethanesulfonate] | 40 µg/mL |  | 0.414 µg/mL | 0.958 µg/mL |  |  | 
